A word on the IC50: it is the midpoint of a concentration-inhibition curve. Lower therefore signals inhibition by little substance.

The structures appear in SMILES notation.

In this test the target is T1, Axl (Homo sapiens, UniProt P30530).
T1 construct: endogenous in cells; host or cells: HeLa cells
T1 sequence (P30530 26-894): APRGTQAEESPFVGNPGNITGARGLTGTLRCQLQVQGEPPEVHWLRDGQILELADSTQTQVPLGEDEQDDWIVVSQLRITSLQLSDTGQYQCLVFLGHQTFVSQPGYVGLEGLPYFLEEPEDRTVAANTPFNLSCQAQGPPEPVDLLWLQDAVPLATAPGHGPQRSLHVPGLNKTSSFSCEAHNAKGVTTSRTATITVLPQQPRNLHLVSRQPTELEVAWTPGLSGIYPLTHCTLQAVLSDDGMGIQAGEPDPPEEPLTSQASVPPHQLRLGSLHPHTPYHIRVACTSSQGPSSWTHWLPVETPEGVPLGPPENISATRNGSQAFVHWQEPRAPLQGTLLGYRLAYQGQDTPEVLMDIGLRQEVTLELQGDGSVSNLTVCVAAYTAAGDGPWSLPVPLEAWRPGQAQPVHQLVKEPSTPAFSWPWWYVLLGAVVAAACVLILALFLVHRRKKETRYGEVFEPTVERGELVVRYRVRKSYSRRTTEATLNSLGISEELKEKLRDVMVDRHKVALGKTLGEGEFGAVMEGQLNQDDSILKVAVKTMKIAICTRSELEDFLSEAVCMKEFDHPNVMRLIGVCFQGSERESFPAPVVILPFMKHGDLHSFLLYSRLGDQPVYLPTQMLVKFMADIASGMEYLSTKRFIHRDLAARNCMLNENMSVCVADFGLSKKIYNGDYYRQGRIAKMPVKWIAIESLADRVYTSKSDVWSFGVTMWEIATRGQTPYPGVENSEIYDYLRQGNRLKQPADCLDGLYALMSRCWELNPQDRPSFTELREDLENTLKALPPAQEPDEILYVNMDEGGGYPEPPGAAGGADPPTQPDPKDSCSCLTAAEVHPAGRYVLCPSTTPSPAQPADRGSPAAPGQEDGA
Nature of the test: Phospho-Akt in-cell Western assay. The format is cell-based. Particulars: Hela cells, Axl antibody cross-linking stimulation, phospho-Akt readout. On the procedure: Phospho-Akt in-Cell Western Assay
The compounds of the invention were tested in the following assay for their ability to inhibit Axl activity.
• Cell culture plate: 96 well assay plate (Corning 3610), white, clear bottom, tissue-culture treated. • Cells: Hela cells. • Starvation medium: For Axl stimulation: 0.5% FCS (fetal calf serum) in DMEM, plus Axl/Fc (extracellular domain of AXL fused to immunoglobulin Fc region) (R&D, 154-AL) 500 ng/mL. • For EGF (epidermal growth factor) stimulation: 0.5% FCS in DMEM (Dulbecco's modified Eagles medium). • Poly-L-Lysine 0.01% solution (the working solution): 10 μg/ml, dilute In PBS (phosphate buffered saline). • Axl antibody cross-linking: • 1st: Mouse anti-Axl (R&D, MAB154). • 2nd: Biotin-SP-conjugated AffiniPure goat anti-mouse IgG (H+L) (Jackson ImmunoResearch #115-065-003). • Fixing buffer: 4% formaldehyde in PBS. • Wash buffer: 0.1% TritonX-100 in PBS. • Quenching buffer: 3% H2O2, 0.1% Azide in wash buffer, Azide and hydrogen peroxide (H2O2) are added fresh. • Blocking buffer: 5% BSA in TBST (tris buffered saline plus 0.1% Tween 20). • Primary antibody: Rabbit anti-human Phospho-Akt antibody (Cell Signaling 9271): 1×250 diluted in blocking buffer. • Secondary antibody: HRP (horse radish peroxidase)-conjugated Goat anti-Rabbit secondary, stock solution: Jackson ImmunoResearch (Goat anti-Rabbit HRP, #111-035-144) 1:1 diluted in glycerol, store at −20° C. The working solution: 1×2000 dilution of stock in blocking buffer. • Chemiluminescent working solution (Pierce, 37030): SuperSignal ELISA (enzyme linked immunosorbant assay) Pico Chemiluminescent substrate. • Crystal Violet solution: Stock: 2.5% Crystal violet in methanol, filtered and kept at ambient temperature. The working solution: dilute the stock 1:20 with PBS immediately before use. • 10% SDS: working solution: 5% SDS (sodium dodecylsulfate), diluted in PBS Methods: Day 1:
A 96 well TC (tissue culture treated) plate was coated with 10 μg/mL poly-L-Lysine at 37° C. for 30 min, washed twice with PBS, and air-dried for 5 minutes before cells were added. Hela cells were seeded at 10,000 cells/well and the cells were starved in 100 μL starvation medium containing Axl/Fc for 24 hrs.
The cells were pre-treated with test compounds by adding 100 μL of 2× test compound to the starvation medium on the cells. The cells were incubated at 37° C. for 1 hr before stimulation.
The cells were stimulated by Axl-antibody cross-linking as follows: A 5×1st/2nd Axl antibody mixture was made (37.5 μg/mL 1st/100 μg/mL 2nd) in starvation medium and nutated at 4° C. with thorough mixing for 1-2 hours for clustering. The resulting mix was warmed to 37° C. 50 μL of 5× Axl 1st/2nd of antibody cluster was added to the cells and the cells were incubated at 37° C. for 5 min.
After 5 minutes stimulation, the plate was flicked to remove medium and the plate was tapped onto paper towels. Formaldehyde (4.0% in PBS, 100 μL) was added to fix the cells and the cells were incubated at ambient temperature for 20 min without shaking.
The cells were washed with a plate washer buffer to remove the formaldehyde solution. The plate was flicked to removed excess wash buffer and tapped onto paper towels. Quenching buffer (100 μL) was added to each well and the cells were incubated at ambient temperature for 20 minutes without shaking.
The cells were washed with a plate washer buffer to remove the quenching buffer. Blocking buffer (100 μL) was added and the cells were incubated at ambient temperature for at least an hour with gentle shaking.
The cells were washed with a plate washer buffer and diluted primary antibody (50 μL) was added to each well (blocking buffer was added to the negative control wells instead). The plates were incubated overnight at 4° C. with gentle shaking.
The wash buffer was removed, diluted secondary antibody (100 μL) was added, and the cells were incubated at ambient temperature for 1 hour with gentle shaking. […]

Under “Table 1, formula (Ia)”, `CN(C)CC(=O)NC1CCc2ncc(Nc3nc(N)n(-c4cc(-c5ccccc5)c5c(n4)C4CCN5CC4)n3)cc2C1` (centres unmarked) [Compound 3, 1-(1,4-ethano-8-phenyl-1,2,3,4-tetrahydro-1,5-naphthyridin-6-yl)-N^3-(6-[(((dimethyl)amino)methyl)carbonylamino]-5,6,7,8-tetrahydroquinoline-3-yl)-1H-1,2,4-triazole-3,5-diamine] showed an IC50 of less than 1 µM.

Compound `CN(C)CC(=O)N1CCc2ncc(Nc3nc(N)n(-c4cc(-c5ccccc5)c5c(n4)C4CCN5CC4)n3)cc2C1` [Compound 4, 1-(1,4-ethano-8-phenyl-1,2,3,4-tetrahydro-1,5-naphthyridin-6-yl)-N^3-(6-[((dimethyl)amino)methylcarbonyl]-5,6,7,8-tetrahydro-1,6-naphthyridine-3-yl)-1H-1,2,4-triazole-3,5-diamine] displayed an IC50 (Table 2, formula (Ib)) of less than 1 µM. Under “Table 8, formula (VI)”, `Nc1nc(Nc2ccc3c(c2)CCC(N2CCCC2)CC3)nn1-c1nnc(-c2ccccc2Cl)c2c1C1CCC2CC1` (centres unmarked) [Compound 29, 1-(4-(2-chlorophenyl)-5,8-ethano-5,6,7,8-tetrahydrophthalazine-1-yl)-N^3-(7-(pyrrolidin-1-yl)-6,7,8,9-tetrahydro-5H-benzo[7]annulene-2-yl)-1H-1,2,4-triazole-3,5-diamine] came in with an IC50 of less than 1 µM.

For `Nc1nc(Nc2ccc(N3CCC(N4CCCC4)CC3)c(F)c2)n(-c2nnc(Cl)c3c2C2CCC3CC2)n1` [Compound 14, 1-(4-chloro-5,8-ethano-5,6,7,8-tetrahydrophthalazine-1-yl)-N^5-(4-(4-(pyrrolidin-1-yl)piperidinyl)-3-fluorophenyl)-1H-1,2,4-triazole-3,5-diamine], under “Table 6, formula (IVb)”, the IC50 lay in the range of 1 to 10 µM. Regarding `Nc1nc(Nc2ccc(N3CCC(N4CCCC4)CC3)c(F)c2)nn1-c1nnc(-c2ccncc2)c2c1C1CCC2CC1` [Compound 18, 1-(4-(pyridin-4-yl)-5,8-ethano-5,6,7,8-tetrahydrophthalazine-1-yl)-N^3-(4-(4-(pyrrolidin-1-yl)piperidinyl)-3-fluorophenyl)-1H-1,2,4-triazole-3,5-diamine], under “Table 5, formula (IVa)”, the IC50 was less than 1 µM. Turning to `COc1cccc(-c2cc(-n3nc(Nc4ccc(N5CCC(N6CCCC6)CC5)c(F)c4)nc3N)nc3c2N2CCC3CC2)c1` [Compound 11, 1-(1,4-ethano-8-(3-methoxyphenyl)-1,2,3,4-tetrahydro-1,5-naphthyridin-6-yl)-N^3-(4-(4-(pyrrolidin-1-yl)piperidinyl)-3-fluorophenyl)-1H-1,2,4-triazole-3,5-diamine], where the note is “Table 3, formula (II)”, the half-inhibitory concentration (IC50) is less than 1 µM.

Consider `C[C@H]1CN(c2ccc(Nc3nc(N)n(-c4nnc(-c5ccncc5)c5c4C4CCC5CC4)n3)cn2)CCN1CC1CC1` [Compound 24, (3S)-1-(4-(pyridin-4-yl)-5,8-ethano-5,6,7,8-tetrahydrophthalazine-1-yl)-N^3-(6-(4-(cyclopropylmethyl)-3-methylpiperazin-1-yl)pyridin-3-yl)-1H-1,2,4-triazole-3,5-diamine], for which the IC50 (Table 7, formula (V)) was in the range of 1 to 10 µM. `Nc1nc(Nc2ccc(N3CCC(N4CCCC4)CC3)c(F)c2)nn1-c1nnc(-c2ccccc2Cl)c2c1C1CCC2CC1` [Compound 15, 1-(4-(2-chlorophenyl)-5,8-ethano-5,6,7,8-tetrahydrophthalazine-1-yl)-N^3-(4-(4-(pyrrolidin-1-yl)piperidinyl)-3-fluorophenyl)-1H-1,2,4-triazole-3,5-diamine]: where the note is “Table 5, formula (IVa)”, the 50% inhibitory concentration (IC50) was less than 1 µM. With `Nc1nc(Nc2ccc(N3CCC(N4CCCC4)CC3)c(F)c2)nn1-c1cc(-c2ccccc2)c2c(n1)C1CCN(CC1)C2` [Compound 7, 1-(6,9-ethano-4-phenyl-6,7,8,9-tetrahydro-5H-pyrido[3,2-c]azepin-2-yl)-N^3-(4-(4-(pyrrolidin-1-yl)piperidinyl)-3-fluorophenyl)-1H-1,2,4-triazole-3,5-diamine], the IC50 (Table 3, formula (II)) is less than 1 µM. Regarding `Cc1cc(F)ccc1-c1nnc(-n2nc(Nc3ccc4c(c3)CCC(N3CCCC3)CC4)nc2N)c2c1C1CCC2CC1` (centres unmarked) [Compound 33, 1-(4-(4-fluoro-2-methylphenyl)-5,8-ethano-5,6,7,8-tetrahydrophthalazine-1-yl)-N^3-(7-(pyrrolidin-1-yl)-6,7,8,9-tetrahydro-5H-benzo[7]annulene-2-yl)-1H-1,2,4-triazole-3,5-diamine], the concentration for half-maximal inhibition (IC50) (Table 8, formula (VI)) is less than 1 µM.

For `Nc1nc(Nc2ccc3c(c2)CC[C@@H](NC2CCC2)CC3)nn1-c1cc(-c2ccccc2)c2c(n1)C1CCN2CC1` [Compound 38, (7S)-1-(1,4-ethano-8-phenyl-1,2,3,4-tetrahydro-1,5-naphthyridin-6-yl)-N^3-(7-(cyclobutylamino)-6,7,8,9-tetrahydro-5H-benzo[7]annulene-2-yl)-1H-1,2,4-triazole-3,5-diamine], the IC50 (Table 4, formula (III)) is less than 1 µM. Compound `N#Cc1cccc(-c2nnc(-n3nc(Nc4ccc(N5CCC(N6CCCC6)CC5)c(F)c4)nc3N)c3c2C2CCC3CC2)c1` [Compound 16, 1-(4-(3-cyanophenyl)-5,8-ethano-5,6,7,8-tetrahydrophthalazine-1-yl)-N^3-(4-(4-(pyrrolidin-1-yl)piperidinyl)-3-fluorophenyl)-1H-1,2,4-triazole-3,5-diamine] showed an IC50 (Table 5, formula (IVa)) of less than 1 µM. Compound `CC(C)N[C@H]1CCc2ccc(Nc3nc(N)n(-c4cc(-c5ccccc5)c5c(n4)C4CCN5CC4)n3)cc2CC1` [Compound 37, (7S)-1-(1,4-ethano-8-phenyl-1,2,3,4-tetrahydro-1,5-naphthyridin-6-yl)-N^3-(7-(isopropylamino)-6,7,8,9-tetrahydro-5H-benzo[7]annulene-2-yl)-1H-1,2,4-triazole-3,5-diamine] returned a half-inhibitory concentration (IC50) (Table 4, formula (III)) of less than 1 µM.

`Nc1nc(Nc2cnc3c(c2)CN(C2CCCC2)CC3)nn1-c1cc(-c2ccccc2)c2c(n1)C1CCN2CC1` [Compound 6, 1-(1,4-ethano-8-phenyl-1,2,3,4-tetrahydro-1,5-naphthyridin-6-yl)-N^3-(6-(cyclopentyl)-5,6,7,8-tetrahydro-1,6-naphthyridine-3-yl)-1H-1,2,4-triazole-3,5-diamine] showed an IC50 (Table 2, formula (Ib)) of less than 1 µM.

Values taken from patent US9206161B2, “Bridged bicyclic heteroaryl substituted triazoles useful as Axl inhibitors” (Rigel Pharmaceuticals, Inc., priority 2008, dated 2015).
